Some results are limits rather than exact numbers.

The target in one assay is EGFR (Hamster) (UniProt P00533). The conditions noted are these: for IC50: er22; for inhibition: er22, dose or concentration not given here.
The target of another assay is EGFR (UniProt P00533). The conditions noted are these: for inhibition: concentration not given here.
Sequence of EGFR (P00533 whole entry, looked up): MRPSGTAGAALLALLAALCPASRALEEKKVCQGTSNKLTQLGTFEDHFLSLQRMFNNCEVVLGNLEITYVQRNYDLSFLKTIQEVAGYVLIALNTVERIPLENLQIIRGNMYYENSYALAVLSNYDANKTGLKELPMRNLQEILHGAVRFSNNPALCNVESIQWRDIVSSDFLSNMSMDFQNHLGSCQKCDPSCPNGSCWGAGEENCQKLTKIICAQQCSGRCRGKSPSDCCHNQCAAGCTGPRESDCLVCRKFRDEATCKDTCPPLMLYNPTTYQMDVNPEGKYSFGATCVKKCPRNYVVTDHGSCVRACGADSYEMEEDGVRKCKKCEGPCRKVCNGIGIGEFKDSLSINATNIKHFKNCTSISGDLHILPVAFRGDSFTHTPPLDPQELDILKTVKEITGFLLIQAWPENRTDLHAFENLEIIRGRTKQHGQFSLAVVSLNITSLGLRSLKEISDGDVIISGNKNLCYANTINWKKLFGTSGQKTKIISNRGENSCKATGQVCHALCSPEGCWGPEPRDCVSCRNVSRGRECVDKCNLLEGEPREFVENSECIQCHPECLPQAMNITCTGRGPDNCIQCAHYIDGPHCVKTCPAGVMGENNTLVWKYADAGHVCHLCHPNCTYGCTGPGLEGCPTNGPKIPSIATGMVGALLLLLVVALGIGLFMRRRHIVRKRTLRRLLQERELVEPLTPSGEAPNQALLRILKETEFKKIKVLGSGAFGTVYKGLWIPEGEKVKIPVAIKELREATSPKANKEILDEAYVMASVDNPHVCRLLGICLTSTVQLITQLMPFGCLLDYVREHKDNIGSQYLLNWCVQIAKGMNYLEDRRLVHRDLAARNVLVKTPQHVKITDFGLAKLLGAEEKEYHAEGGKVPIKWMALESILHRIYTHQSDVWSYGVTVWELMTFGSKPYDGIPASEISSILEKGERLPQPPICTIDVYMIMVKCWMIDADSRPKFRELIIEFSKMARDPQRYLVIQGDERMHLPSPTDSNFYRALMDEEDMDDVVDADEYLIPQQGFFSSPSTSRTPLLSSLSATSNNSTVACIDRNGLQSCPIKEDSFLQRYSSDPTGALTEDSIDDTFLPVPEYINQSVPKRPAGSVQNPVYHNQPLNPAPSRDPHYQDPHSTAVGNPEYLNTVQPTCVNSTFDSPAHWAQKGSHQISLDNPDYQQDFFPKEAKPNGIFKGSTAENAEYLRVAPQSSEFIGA

Sequence of EGFR (Hamster) (P00533 whole entry, looked up): as above

In the assay with EGFR (Hamster), `CC(C)(C)CCOC(=O)c1cc(N=Cc2cc(O)ccc2O)ccc1O` displayed a concentration for half-maximal inhibition (IC50) above 2 µM and an inhibition of 0%.

In the assay with EGFR (Hamster), `CC(C)(C)OC(=O)c1cc(N=Cc2cc(O)ccc2O)ccc1O` displayed a 50% inhibitory concentration (IC50) above 10 µM.

For `O=C(Oc1ccc2ccccc2c1)c1cc(NCc2cc(O)ccc2O)ccc1O`, the IC100 against EGFR was found to be 0.09 µM.

Regarding `CCCCCCCCCCCCCCCCOC(=O)c1cc(NCc2cc(O)ccc2O)ccc1O`, the inhibition at EGFR and in the assay with EGFR (Hamster) was 0% throughout.

In the assay with EGFR (Hamster), `O=C(Oc1cccc(O)c1)c1cc(NCc2cc(O)ccc2O)ccc1O` displayed an IC50 above 5 µM and an inhibition of 0%.

Turning to `CC(CCOC(=O)c1cc(NCc2cc(O)ccc2O)ccc1O)CC(C)(C)C` (configuration not stated), on EGFR, the inhibition stood at 0%.

With `O=C(Cc1cc(N=Cc2cc(O)ccc2O)ccc1O)NOCc1ccccc1`, the inhibition with EGFR (Hamster) is 61%.

At EGFR, `O=C(OCCC1[C@H]2C[C@@H]3C[C@@H](C[C@H]1C3)C2)c1cc(NCc2cc(O)ccc2O)ccc1O` (some centres not stated) registered an IC50 above 5 µM and an inhibition of 0%. The compound also gave a concentration for half-maximal inhibition (IC50) with EGFR (Hamster) of 1.25 µM.

Compound `CC(COC(=O)c1cc(N=Cc2cc(O)ccc2O)ccc1O)CC(C)(C)C` (configuration not stated) returned an inhibition against EGFR of 0%.

Take `CONC(=O)c1cc(N=Cc2cc(O)ccc2O)ccc1O`: the 50% inhibitory concentration (IC50) with EGFR (Hamster) was above 100 µM.

Turning to `CC(C)(C)ONC(=O)c1cc(N=Cc2cc(O)ccc2O)ccc1O`, in the assay with EGFR (Hamster), the 50% inhibitory concentration (IC50) is above 20 µM and the inhibition is 0%.

Usually IC50 stands for the concentration that inhibits the measured activity by half. The inhibition is the percentage by which the read-out fell short of the control. Read a high inhibition as a strong effect.
